# Assay results published in US10550105B2 (Ribon Therapeutics Inc., priority 2018, dated 2020).
# Target: PARP7 (Homo sapiens (Human), UniProt Q7Z3E1)
# Test: Enzymatic assay for inhibition of PARP7: TR-FRET displacement of biotinylated Probe A from the TIPARP active site
# Type: binding
# Conditions: Table A-1
# Method in brief: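 Compounds were tested as dose-response series, and reactions were incubated a further 30 min at 25° C. TR-FRET was read at 320 nm excitation with 615 and 665 nm emission after a 90 μs delay. The 665/615 ratio gave the TIPARP–Probe A complex, and % inhibition was fitted against concentration.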
# PARP7, sequence (Q7Z3E1 whole entry): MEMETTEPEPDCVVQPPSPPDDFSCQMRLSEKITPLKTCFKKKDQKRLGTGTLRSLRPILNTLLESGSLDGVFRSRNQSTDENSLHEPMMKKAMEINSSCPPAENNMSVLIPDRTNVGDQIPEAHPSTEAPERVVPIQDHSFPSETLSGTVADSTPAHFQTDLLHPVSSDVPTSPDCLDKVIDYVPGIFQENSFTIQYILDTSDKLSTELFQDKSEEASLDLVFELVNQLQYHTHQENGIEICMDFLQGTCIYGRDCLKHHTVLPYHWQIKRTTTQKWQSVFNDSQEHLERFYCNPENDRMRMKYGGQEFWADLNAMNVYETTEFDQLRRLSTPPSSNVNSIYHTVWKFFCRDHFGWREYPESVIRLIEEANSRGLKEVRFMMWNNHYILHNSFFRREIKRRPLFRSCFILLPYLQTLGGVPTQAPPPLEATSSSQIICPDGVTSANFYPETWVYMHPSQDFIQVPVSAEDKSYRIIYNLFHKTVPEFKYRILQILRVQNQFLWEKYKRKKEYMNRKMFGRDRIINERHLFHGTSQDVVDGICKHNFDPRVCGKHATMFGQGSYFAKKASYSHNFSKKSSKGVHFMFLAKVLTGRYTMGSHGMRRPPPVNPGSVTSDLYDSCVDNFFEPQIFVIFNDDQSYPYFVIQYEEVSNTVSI
row,SMILES,IC50
1,"COc1ccc2c(n1)CN(c1cn[nH]c(=O)c1C(F)(F)F)C2 [Example 303, 5-(2-Methoxy-5,7-dihydro-6H-pyrrolo[3,4-b]pyridin-6-yl)-4-(trifluoromethyl)pyridazin-3(2H)-one]",< 100 nM
2,"CNc1cccc2c1CN(c1cn[nH]c(=O)c1C(F)(F)F)C2 [Example 215, 5-(4-(Methylamino)isoindolin-2-yl)-4-(trifluoromethyl)pyridazin-3(2H)-one]",< 100 nM
3,"CN(C[C@@H]1CCCN1c1cn[nH]c(=O)c1C(F)(F)F)C(=O)CCN1CCN(c2ccc(C#N)cn2)CC1 [Example 138, 3-[4-(5-cyanopyridin-2-yl)piperazin-1-yl]-N-methyl-N-[[(2S)-1-[6-oxo-5-(trifluoromethyl)-1,6-dihydropyridazin-4-yl]pyrrolidin-2-yl]methyl]propanamide]",≥ 1000 nM
4,"O=c1[nH]ncc(N2Cc3cccc(OCCO)c3C2)c1Br [Example 168, 4-Bromo-5-(4-(2-hydroxyethoxy)isoindolin-2-yl)pyridazin-3(2H)-one]",100 to 1000 nM
5,"N#Cc1ccc(OC2CCC(NC(=O)CCOC[C@@H]3CCCN3c3cn[nH]c(=O)c3C(F)(F)F)CC2)nc1 (stereo partly drawn) [Example 99, N-(4-[(5-cyanopyridin-2-yl)oxy]cyclohexyl]-3-[[(2S)-1-[6-oxo-5-(trifluoromethyl)-1,6-dihydropyridazin-4-yl]pyrrolidin-2-yl]methoxy]propanamide]",100 to 1000 nM
6,"CC(=O)N1CCC[C@@H]2CN(c3cn[nH]c(=O)c3C(F)(F)F)C[C@@H]21 [Example 142, 5-[(4aR,7aR)-1-acetyl-octahydro-1H-pyrrolo[3,4-b]pyridin-6-yl]-4-(trifluoromethyl)-2,3-dihydropyridazin-3-one]",≥ 1000 nM
7,"NCC1c2ccccc2CN1c1cn[nH]c(=O)c1Cl (centres unmarked) [Example 231, 5-(1-(Aminomethyl)isoindolin-2-yl)-4-chloropyridazin-3(2H)-one]",≥ 1000 nM
8,"O=c1[nH]ncc(N2Cc3ccncc3C2)c1Cl [Example 152, 4-Chloro-5-(1,3-dihydro-2H-pyrrolo[3,4-c]pyridin-2-yl)pyridazin-3(2H)-one]",100 to 1000 nM
9,"COCCOc1ccc2c(c1)CN(c1cn[nH]c(=O)c1Cl)C2 [Example 156, 4-Chloro-5-(5-(2-methoxyethoxy)isoindolin-2-yl)pyridazin-3(2H)-one]",100 to 1000 nM
10,"O=c1[nH]ncc(N2Cc3ccc(OC4CCN(C(c5ccccc5)c5ccccc5)CC4)cc3C2)c1C(F)(F)F [Example 28, 5-(5-[[1-(diphenylmethyl)piperidin-4-yl]oxy]-2,3-dihydro-1H-isoindol-2-yl)-4-(trifluoromethyl)-2,3-dihydropyridazin-3-one]",< 100 nM
11,"O=C(CCOC[C@@H]1CCCN1c1cn[nH]c(=O)c1C(F)(F)F)NC1CCC(Oc2ccccn2)CC1 (stereo partly drawn) [Example 84, 3-[[(2S)-1-[6-oxo-5-(trifluoromethyl)-1,6-dihydropyridazin-4-yl]pyrrolidin-2-yl]methoxy]-N-[4-(pyridin-2-yloxy)cyclohexyl]propanamide]",100 to 1000 nM
12,"O=c1[nH]ncc(N2Cc3cccc(OC[C@@H]4CCCO4)c3C2)c1C(F)(F)F (single isomer, unassigned) [Example 222]",< 100 nM
13,"CO[C@H](C)[C@@H](COCCC(=O)N1CCN(c2ccc(C#N)cn2)CC1)Nc1cn[nH]c(=O)c1C(F)(F)F [Example 596, 6-(4-[3-[(2R,3R)-3-Methoxy-2-[[6-oxo-5-(trifluoromethyl)-1,6-dihydropyridazin-4-yl]amino]butoxy]propanoyl]piperazin-1-yl)pyridine-3-carbonitrile]",< 100 nM
14,"O=c1[nH]ncc(N2Cc3cccc(N4CCC(O)C4)c3C2)c1C(F)(F)F (centres unmarked) [Example 305, 5-(4-(3-Hydroxypyrrolidin-1-yl)isoindolin-2-yl)-4-(trifluoromethyl)pyridazin-3(2H)-one 2,2,2-trifluoroacetic acid]",< 100 nM

# Now from value to compound:
row,IC50,SMILES
1,≥ 1000 nM,"CC(=O)N(C)CC1c2ccccc2CN1c1cn[nH]c(=O)c1C(F)(F)F (centres unmarked) [Example 276, N-Methyl-N-((2-(6-oxo-5-(trifluoromethyl)-1,6-dihydropyridazin-4-yl)isoindolin-1-yl)methyl)acetamide]"
2,< 100 nM,"CC1CN(c2ccc(C#N)cn2)CCN1C(=O)CCOC[C@@H]1CCCN1c1cn[nH]c(=O)c1C(F)(F)F (stereo partly drawn) [Example 473, 6-(3 -Methyl-4-(3-(((S)-1-(6-oxo-5-(trifluoromethyl)-1,6-dihydropyridazin-4-yl)pyrrolidin-2-yl)methoxy)propanoyl)piperazin-1-yl)nicotinonitrile]"
3,< 100 nM,"CN(CC1CCCO1)c1cccc2c1CN(c1cn[nH]c(=O)c1C(F)(F)F)C2 (centres unmarked) [Example 270, 5-(4-(Methyl((tetrahydrofuran-2-yl)methyl)amino)isoindolin-2-yl)-4-(trifluoromethyl)pyridazin-3(2H)-one]"
4,< 100 nM,"C[C@H](O)[C@@H](COCCC(=O)N1CCN(c2ncc(C(F)(F)F)cn2)CC1)Nc1cn[nH]c(=O)c1C(F)(F)F [Example 611, 5-[[(2R,3S)-3-Hydroxy-1-(3-oxo-3-[4-[5-(trifluoromethyl)pyrimidin-2-yl]piperazin-1-yl]propoxy)butan-2-yl]amino]-4-(trifluoromethyl)-2,3-dihydropyridazin-3-one]"
5,100 to 1000 nM,"COC[C@H](COCCC(=O)N1CCN(c2ncc(C(F)(F)F)cn2)CC1)Sc1cn[nH]c(=O)c1C(F)(F)F (single isomer, unassigned) [Example 692]"
6,100 to 1000 nM,"O=C(COC[C@@H]1CCCN1c1cn[nH]c(=O)c1C(F)(F)F)N1CCN(c2ccccn2)CC1 [Example 448, (S)-5-(2-((2-Oxo-2-(4-(pyridin-2-yl)piperazin-1-yl)ethoxy)methyl)pyrrolidin-1-yl)-4-(trifluoromethyl)pyridazin-3(2H)-one]"
7,< 100 nM,"O=C(CCNC[C@@H]1c2ccccc2CN1c1cn[nH]c(=O)c1C(F)(F)F)N1CCN(c2ncc(C(F)(F)F)cn2)CC1 [Example 433, (S)-5-(1-(((3-Oxo-3-(4-(5-(trifluoromethyl)pyrimidin-2-yl)piperazin-1-yl)propyl)amino)methyl)isoindolin-2-yl)-4-(trifluoromethyl)pyridazin-3(2H)-one]"
8,100 to 1000 nM,"CN(C)C(=O)c1cccc2c1CN(c1cn[nH]c(=O)c1C(F)(F)F)C2 [Example 277, N,N-Dimethyl-2-(6-oxo-5-(trifluoromethyl)-1,6-dihydropyridazin-4-yl)isoindoline-4-carboxamide]"
9,< 100 nM,"N#Cc1ccc(N2CCN(C(=O)c3ccnc(OCC4c5ccccc5CN4c4cn[nH]c(=O)c4C(F)(F)F)n3)CC2)nc1 (centres unmarked) [Example 383, 6-(4-(2-((2-(6-Oxo-5-(trifluoromethyl)-1,6-dihydropyridazin-4-yl)isoindolin-1-yl)methoxy)pyrimidine-4-carbonyl)piperazin-1-yl)nicotinonitrile]"
10,< 100 nM,"O=C(CCOC[C@H](CO)Nc1cn[nH]c(=O)c1C(F)(F)F)N1CCN(c2ncc(C(F)(F)F)cn2)CC1 [Example 603, 5-[[(2S)-1-Hydroxy-3-(3-oxo-3-[4-[5-(trifluoromethyl)pyrimidin-2-yl]piperazin-1-yl]propoxy)propan-2-yl]amino]-4-(trifluoromethyl)-2,3-dihydropyridazin-3-one]"
11,< 100 nM,"N#Cc1ccc(N2CCN(C(=O)c3cccc(OCCOCC4CCN(c5cn[nH]c(=O)c5C(F)(F)F)C4)c3)CC2)nc1 (centres unmarked) [Example 467, 6-(4-(3-(2-((1-(6-Oxo-5-(trifluoromethyl)-1,6-dihydropyridazin-4-yl)pyrrolidin-3-yl)methoxy)ethoxy)benzoyl)piperazin-1-yl)nicotinonitrile]"
12,< 100 nM,"O=C(c1cccc(OC[C@@H]2CCCN2c2cn[nH]c(=O)c2C(F)(F)F)c1)N1CCN(c2ccc(C(F)(F)F)cn2)CC1 [Example 440, (S)-4-(Trifluoromethyl)-5-(2-((3-(4-(5-(trifluoromethyl)pyridin-2-yl)piperazine-1-carbonyl)phenoxy)methyl)pyrrolidin-1-yl)pyridazin-3(2H)-one]"
13,100 to 1000 nM,"N#Cc1ccc(N2CCN(C(=O)COCCOCC3CCN(c4cn[nH]c(=O)c4C(F)(F)F)C3)CC2)nc1 (centres unmarked) [Example 478, 6-(4-(2-(2-((1-(6-Oxo-5-(trifluoromethyl)-1,6-dihydropyridazin-4-yl)pyrrolidin-3-yl)methoxy)ethoxy)acetyl)piperazin-1-yl)nicotinonitrile]"
14,100 to 1000 nM,"COCCOc1ccc2c(n1)CN(c1cn[nH]c(=O)c1C(F)(F)F)C2 [Example 311, 5-(2-(2-Methoxyethoxy)-5,7-dihydro-6H-pyrrolo[3,4-b]pyridin-6-yl)-4-(trifluoromethyl)pyridazin-3(2H)-one]"
15,< 100 nM,"O=C(c1cccc(OC[C@@H]2c3ccccc3CN2c2cn[nH]c(=O)c2C(F)(F)F)c1)N1CCn2c(nnc2C(F)(F)F)C1 [Example 373, (S)-4-(Trifluoromethyl)-5-(1-((3-(3-(trifluoromethyl)-5,6,7,8-tetrahydro-[1,2,4]triazolo[4,3-a]pyrazine-7-carbonyl)phenoxy)methyl)isoindolin-2-yl)pyridazin-3(2H)-one]"
16,< 100 nM,"COC[C@@H](COCCC(=O)N1CCN(c2ncc(C(F)(F)F)cn2)CC1)Nc1cn[nH]c(=O)c1Br [Example 668, (S)-4-Bromo-5-((1-methoxy-3-(3-oxo-3-(4-(5-(trifluoromethyl)pyrimidin-2-yl)piperazin-1-yl)propoxy)propan-2-yl)amino)pyridazin-3(2H)-one]"
17,< 100 nM,"N#Cc1ccc(N2CCN(C(=O)c3cccc(NCC4c5ccccc5CN4c4cn[nH]c(=O)c4C(F)(F)F)c3)CC2)nc1 (centres unmarked) [Example 348, 6-(4-(3-(((2-(6-Oxo-5-(trifluoromethyl)-1,6-dihydropyridazin-4-yl)isoindolin-1-yl)methyl)amino)benzoyl)piperazin-1-yl)nicotinonitrile]"
18,< 100 nM,"N#Cc1ccc(N2CCN(C(=O)CCOC[C@H](CN3CCOCC3)Oc3cn[nH]c(=O)c3C(F)(F)F)CC2)nc1 [Example 663, (S)-6-(4-(3-(3-Morpholino-2-((6-oxo-5-(trifluoromethyl)-1,6-dihydropyridazin-4-yl)oxy)propoxy)propanoyl)piperazin-1-yl)nicotinonitrile]"
